Biological target: T1, CA-IX (Homo sapiens, UniProt Q16790)
T1 construct: His tag (C); purchased R&D Systems Inc. 2188-CA; host or cells: mouse myeloma cell line NS0
Assay: Binding affinity (Kd) determination for CA-IX inhibitors, DNSA fluorescence competition assay, Scatchard plots
Details: Table 3
Experimental: General. […] The human red blood cells were obtained from Research Blood Components, LLC. All absorbance measurements were performed on a SPECTRA MAX M2 plate reader at 25° C. The LC/MS analyses were performed on an Agilent 1100 series LC/MSD (SL) using a 30×2.1 mm Zorbax C8 column with a Phenomenex C18 pre-column. Compound detection was accomplished by electrospray mass spectroscopy in positive selected ion mode (LC/MS-SIM). The elution solvents were acetonitrile and water, contained 0.05% TFA. Nuclear magnetic resonance (NMR) spectra were obtained on a Bruker AMX 300 MHz spectrometer or a Varian 400. 19F NMR spectra were recorded on a Bruker AMX 282.35 MHz or a Varian 400 spectrometer. The mass spectra were recorded on an Agilent 1100 series LC/MSD with electrospray mass spectroscopic detection. Flash column chromatography was performed on Merck silica gel (40-63 μm) using the solvent system indicated. The radiochemical and chemical purities were analyzed by RP-HPLC.
General Procedure of Binding Affinity (Ka) Determination for CA-IX Inhibitors
The assay was based on the observation that the only fluorescence signal detected at 460 nm upon excitation at 290 nm, an absorption […] for DNSA, was that of the DNSA.CA complex. […] The latter were developed for each test compound using mass balance for calculating the concentration of CA bound to DNSA [DNSA.CA], bound to the non-fluorescent sample [CA.Inh] and free CA [CA] in solution. The Kd values were determined from Scatchard plots using the equation below as described by Whitesides et al. [CA.Inh]/[CA]tot.[Inh]=K11^inh−K11^inh{[CA.Inh]+[CA.DNSA]}/([CA]tot)
The terms [CA.DNSA], [CA.Inh], and free CA were calculated using the mass balance based on the known values for the dissociation constant of CA.DNSA and the total concentration of CA in each reaction.

## COC(=O)[C@@H](CSCc1cccc(OCCF)c1)NC(=O)[C@H](CCO)n1cc(COc2ccc3nc(S(N)(=O)=O)sc3c2)nn1 [VM2-106, (S)-methyl 3-(3-(2-fluoroethoxy)benzylthio)-2-(S)-4-hydroxy-2-(4-((2-sulfamoylbenzo[d]thiazol-6-yloxy)methyl)-1H-1,2,3-triazol-1-yl)butanamido) propanoate]
  Kd: 5 nM

## COC(=O)[C@H](Cc1ccc(C(F)(F)F)cc1)NC(=O)[C@H](C(C)C)n1cc(COc2ccc3nc(S(N)(=O)=O)sc3c2)nn1 [BW-96, (S)-methyl 2-((S)-3-methyl-2-(4-((2-sulfamoylbenzo[d]thiazol-6-yloxy)methyl)-1H-1,2,3-triazol-1-yl)butanamido)-3-(4-(trifluoromethyl)phenyl) propanoate]
  Kd: 1.7 nM

## NS(=O)(=O)c1nc2ccc(OCc3cn(CC(=O)N[C@H](CSCc4cccc(OCCn5cc(CCCF)nn5)c4)C(=O)O)nn3)cc2s1 [BW2-27, (S)-3-(3-(2-(4-(3-fluoropropyl)-1H-1,2,3-triazol-1-yl)ethoxy)benzylthio)-2-(2-(4-((2-sulfamoylbenzo[d]thiazol-6-yloxy)methyl)-1H-1,2,3-triazol-1-yl)acetamido)propanoic acid]
  Kd: 10 nM

## CC(C)[C@@H](C(=O)NCc1ccc(CN(C)C)o1)n1cc(-c2ccc(S(N)(=O)=O)cc2)nn1 [DHK2-95]
  Kd: 25 nM

## CC(C)C(C(=O)N[C@@H](Cc1ccc(OC(CO)CF)cc1)C(=O)O)n1cc(COc2ccc3nc(S(N)(=O)=O)sc3c2)nn1 (single isomer, unassigned) [GGC121B]
  Kd: 13 nM

## NS(=O)(=O)c1nc2ccc(OCc3cn([C@@H](Cc4ccc(OCCF)cc4)C(=O)N[C@@H](Cc4c[nH]c5ccccc45)C(=O)O)nn3)cc2s1 [DHK2-180]
  Kd: 14 nM

## NCC1OC(C(=O)NCCOc2cccc(COCC(NC(=O)Cn3cc(COc4ccc5nc(S(N)(=O)=O)sc5c4)nn3)C(=O)O)c2)C(O)C(O)C1O (stereo not shown) [DHK3-155]
  Kd: 11 nM

## CC(C)[C@H](C(=O)N[C@@H](Cc1ccc(OCCF)cc1)C(=O)O)n1cc(COc2ccc3nc(S(N)(=O)=O)sc3c2)nn1 [VM4037b]
  Kd: 5 nM

## COC(=O)[C@H](Cc1ccc(C(F)(F)F)cc1)NC(=O)[C@H](C(C)C)n1cc(COc2ccc3nc(S(N)(=O)=O)sc3c2)nn1 [DHK2-129]
  Kd: 1.2 nM

## NS(=O)(=O)c1nc2ccc(OCc3cn(CC(=O)N[C@@H](Cc4ccc(OCCF)cc4)C(=O)O)nn3)cc2s1 [UG3150, (S)-3-(4-(2-fluoroethoxy)phenyl)-2-(2-(4-((2-sulfamoylbenzo[d]thiazol-6-yloxy)methyl)-1H-1,2,3-triazol-1-yl)acetamido)propanoic acid]
  Kd: 3.3 nM

## CC(C)[C@@H](C(=O)N[C@H](Cc1ccc(C(F)(F)F)cc1)C(=O)O)n1cc(COc2ccc3nc(S(N)(=O)=O)sc3c2)nn1 [DHK2-160-F1]
  Kd: 10 nM

## Cc1cc[n+](C)c(NC(=O)[C@H](Cc2ccccc2)n2cc(-c3ccc(S(N)(=O)=O)cc3)nn2)c1 [DHK160]
  Kd: 20 nM

## C[N+](C)(C)C[C@H](O)CC(=O)NCCCC[C@@H](C(=O)NCc1ccc(C(F)(F)F)cc1)n1cc(COc2ccc3nc(S(N)(=O)=O)sc3c2)nn1 [DHK2-147]
  Kd: 11 nM

## NS(=O)(=O)c1nc2ccc(OCc3cn(C(Cc4ccc(F)cc4)C(=O)NC(COCc4cccc(OCCO)c4)C(=O)O)nn3)cc2s1 (single isomer, unassigned) [VM3-167B]
  Kd: 10 nM

## NS(=O)(=O)c1nc2ccc(OCc3cn([C@@H](Cc4ccc(OCCF)cc4)C(=O)O)nn3)cc2s1 [BD2-09, (S)-3-(4-(2-fluoroethoxy)phenyl)-2-(4-((2-sulfamoylbenzo[d]thiazol-6-yloxy)methyl)-1H-1,2,3-triazol-1-yl)propanoic acid]
  Kd: 17 nM

## NS(=O)(=O)c1nc2ccc(OCc3cn(CC(=O)NC(COCc4cccc(OCCNC(=O)CN(CCO)CCO)c4)C(=O)O)nn3)cc2s1 (stereo not shown) [DHK3-158]
  Kd: 14 nM

## N[C@@H](CO)C(=O)NCCOc1cccc(COC[C@H](NC(=O)Cn2cc(COc3ccc4nc(S(N)(=O)=O)sc4c3)nn2)C(=O)O)c1 [VM3-163, (S)-3-(3-(2-((S)-2-amino-3-hydroxypropanamido)ethoxy)benzyloxy)-2-(2-(4-((2-sulfamoylbenzo[d]thiazol-6-yloxy)methyl)-1H-1,2,3-triazol-1-yl)acetamido)propanoic acid]
  Kd: 10 nM

## CC(C)[C@@H](C(=O)NCc1ccc(C(F)(F)F)cc1)n1cc(COc2ccc3nc(S(N)(=O)=O)sc3c2)nn1 [DHK2-24]
  Kd: 1 nM

## COC(=O)C[C@H](NC(=O)[C@H](Cc1ccc(OCCF)cc1)n1cc(COc2ccc3nc(S(N)(=O)=O)sc3c2)nn1)c1ccccc1 [DHK2-128]
  Kd: 10 nM

## CC(C)[C@@H](C(=O)N1CCC(C(=O)O)CC1)n1cc(COc2ccc3nc(S(N)(=O)=O)sc3c2)nn1 [DHK2-84]
  Kd: 10 nM

## CCOC(=O)C1CCN(C(=O)[C@H](Cc2ccccc2)n2cc(COc3ccc4nc(S(N)(=O)=O)sc4c3)nn2)CC1 [DHK2-68]
  Kd: 3.4 nM

## NS(=O)(=O)c1nc2ccc(OCc3cn(CC(=O)N[C@@H](Cc4ccc(OCCO)cc4)C(=O)O)nn3)cc2s1 [VM4009, (S)-3-(4-(2-hydroxyethoxy)phenyl)-2-(2-(4-((2-sulfamoylbenzo[d]thiazol-6-yloxy)methyl)-1H-1,2,3-triazol-1-yl)acetamido)propanoic acid]
  Kd: 5 nM

## CC(C)C(C(=O)N[C@@H](Cc1ccc(OC(CO)CF)cc1)C(=O)O)n1cc(COc2ccc3nc(S(N)(=O)=O)sc3c2)nn1 (single isomer, unassigned) [GGC121A]
  Kd: 11 nM

## N[C@@H](CO)C(=O)NCCCC[C@@H](C(=O)NCc1ccc(C(F)(F)F)cc1)n1cc(COc2ccc3nc(S(N)(=O)=O)sc3c2)nn1 [DHK2-157]
  Kd: 25 nM

## CC1(C)O[C@@H](CF)[C@H](COc2ccc(CC(C(=O)NC(Cc3ccc(C(F)(F)F)cc3)C(=O)O)n3cc(COc4ccc5nc(S(N)(=O)=O)sc5c4)nn3)cc2)O1 (stereo partly shown) [BW-139-1A]
  Kd: 1.7 nM

## COC(=O)[C@@H](CSCc1cccc(OCCOCCOCCF)c1)NC(=O)Cn1cc(COc2ccc3nc(S(N)(=O)=O)sc3c2)nn1 [BW2-41, (S)-methyl 3-(3-(2-(2-(2-fluoroethoxy)ethoxy)ethoxy)benzylthio)-2-(2-(4-((2-sulfamoylbenzo[d]thiazol-6-yloxy)methyl)-1H-1,2,3-triazol-1-yl)acetamido)propanoate]
  Kd: 5 nM

## NS(=O)(=O)c1nc2ccc(OCc3cn(C(Cc4ccc(F)cc4)C(=O)NC(COCc4cccc(OCCO)c4)C(=O)O)nn3)cc2s1 (single isomer, unassigned) [VM3-167A]
  Kd: 5 nM

## CC(C)C(C(=O)NC(Cc1ccc(OCC(O)CF)cc1)C(=O)O)n1cc(COc2ccc3nc(S(N)(=O)=O)sc3c2)nn1 (single isomer, unassigned) [VM4047a]
  Kd: 5 nM

## COC(=O)[C@H](C[S+]([O-])Cc1cccc(OCCF)c1)NC(=O)Cn1cc(COc2ccc3sc(S(N)(=O)=O)nc3c2)nn1 (stereo partly drawn) [VM2-126, ((2S)-methyl 3-(3-(2-fluoroethoxy)benzylsulfinyl)-2-(2-(4-((2-sulfamoylbenzo[d]thiazol-6-yloxy)methyl)-1H-1,2,3-triazol-1-yl)acetamido) propanoate]
  Kd: 10 nM

## CC(C)[C@@H](C(=O)N[C@H](Cc1ccc(C(F)(F)F)cc1)C(=O)O)n1cc(COc2ccc3nc(S(N)(=O)=O)sc3c2)nn1 [DHK2-160-F2]
  Kd: 5 nM

## NS(=O)(=O)c1nc2cc(OCc3cn(CC(=O)NCCCOCCOCCOCCCNC(=O)c4ccc(C(=O)O)c(-c5c6ccc(=O)cc-6oc6cc(O)ccc56)c4)nn3)ccc2s1 [WZ01101]
  Kd: 14 nM

Source: patent publication US7829063B2, “Development of molecular imaging probes for carbonic anhydrase-IX using click chemistry” (Siemens Medical Solutions USA, Inc., priority 2007, dated 2010)
